# B1: EAE3-CD4 (TCR)
# alpha mTRAV14D-1 mTRAJ43 CDR3: CAASGANNNNAPRF
# beta mTRBV3 mTRBJ2-5 CDR3: CASSLEGHQDTQYF
# B2: EAE6-CD8 (TCR)
# alpha mTRAV12-1 mTRAJ31 CDR3: CALSDYNRIFF
# beta mTRBV19 mTRBJ2-3 CDR3: CASSITPLGGLETLYF
# B3: EAE7-CD8 (TCR)
# alpha mTRAV5D-4 mTRAJ45 CDR3: CAASVNTEGADRLTF
# beta mTRBV15 mTRBJ1-1 CDR3: CASTNRGEVFF
# B4: ovalbumin protein: whole OVA protein (protein, UniProt P01012 2-386, looked up)
# Ovalbumin: GSIGAASMEFCFDVFKELKVHHANENIFYCPIAIMSALAMVYLGAKDSTRTQINKVVRFDKLPGFGDSIEAQCGTSVNVHSSLRDILNQITKPNDVYSFSLASRLYAEERYPILPEYLQCVKELYRGGLEPINFQTAADQARELINSWVESQTNGIIRNVLQPSSVDSQTAMVLVNAIVFKGLWEKAFKDEDTQAMPFRVTEQESKPVQMMYQIGLFRVASMASEKMKILELPFASGTMSMLVLLPDEVSGLEQLESIINFEKLTEWTSSNVMEERKIKVYLPRMKMEEKYNLTSVLMAMGITDVFSSSANLSGISSAESLKISQAVHAAHAEINEAGREVVGSAEAGVDAASVSEEFRADHPFLFCIKHIATNAVLFFGRCVSP
# B5: EAE2-CD4 (TCR)
# alpha mTRAV12-1 mTRAJ23 CDR3: CALRNYNQGKLIF
# beta mTRBV16 mTRBJ1-4 CDR3: CASSLDQGWDERLFF
# Key:
# [1] = tested on: experimental autoimmune encephalomyelitis (EAE); experiment: Induction and evaluation of EAE (clinical scores); assay type: in vivo, C57BL/6J mice
# [2] = tested on: SP specific CD8+ T cells; experiment: Tetramer enrichment of SP-specific CD8+ T cells from spleen and LN after immunization; assay type: in vivo, C57BL/6J mice; settings: 10D PI
# [3] = tested on: MOG35-55 specific CD4+ T cells; experiment: Tetramer enrichment of MOG35-55 I-Ab specific CD4+ T cells from spleen and LN after immunization; assay type: in vivo, C57BL/6J mice; settings: D10 after immunization
# [4] = tested on: MOG35-55 specific CD4+ T cells; experiment: In vitro proliferation/suppression assay (CTV dilution); assay type: cell-based, mouse; settings: CD4+ T cells from MOG immunized mice stimulated with MOG35-55
# Experimental: In vitro proliferation/suppression assay. Spleen and LN cells were harvested from WT or immunized mice. Single cell suspensions were prepared, and RBCs were lysed using Ack lysis buffer (ThermoFisher scientific A1049201). […] Post CD4+ T cell enrichment, cells were counted and labelled with CellTrace™ Violet Dye (ThermoFisher scientific C34557) according to manufacturer instructions.
# In vitro proliferation/suppression assays were set up according to previously published protocol. Briefly, labelled CD4+ T cells were co-cultured either with CD8+ T cells (1:1 ratio, 0.25×10^6 cells/well) or without CD8+ T cells in the presence of pan DC's (0.75×10^6 cells/well). In some of the suppression experiments cells were pre-included with 10 μg/ml of anti-Qa-1b neutralizing antibody (6A8.6F10.1A16, BD Biosciences). Cells were cultured in a total volume of 200 μl in a 96-well round bottom plate. The CD4+ T cells were stimulated with either MOG35-55 or not. On day 7, the cells were washed and stained with surface antibodies and analyzed on LSR II (Becton Dickinson).
# [5] = tested on: ovalbumin specific TCR (OT-1) expressed in 58 αβ−/− cells; experiment: T cell stimulation assay (CD69) with peptide- or protein-pulsed BMDCs; assay type: cell-based, mouse; settings: co-culture with loaded BMDCs
# Experimental: T cell stimulation assays. T cell stimulation assays were performed as previously described. All the T cell peptide stimulation experiments were done in 96 well round bottom plates with a 200 μl total volume. T2, K562 cells or BMDCs were pulsed with 10-100 μg of the peptides for 45 minutes, washed once and plated (10,000 cells/well). Cell lines expressing TCRs (100,000 cells/well) were co-cultured with APCs for 18 hr. At the end of stimulation, cells were harvested, washed, and stained with TCRβ, human CD3, and CD69 and analyzed on LSR II (Becton Dickinson) for activation.
# [6] = tested on: EAE6-CD8 TCR; assay type: binding, mouse; settings: Jurkat αβ−/− cells, H2-Db tetramer
# [7] = tested on: 6218 TCR; assay type: binding, mouse; settings: Jurkat αβ−/− cells, H2-Db tetramer
# [8] = tested on: EAE7-CD8 TCR; assay type: binding, mouse; settings: Jurkat αβ−/− cells, H2-Db tetramer
# [9] = biological target: T1, myelin oligodendrocyte glycoprotein (MOG); the tetramer is called MOG35-55 I-Ab in the results peptide on … (mouse); experiment: multimer staining
# T1 peptide: GWYRSPFSRVV
# [10] = biological target: T2, yeast H2-Db library peptide enriched by the EAE6-CD8 TCR peptide on H2-Db (mouse); experiment: binding, other
# T2 peptide: NHRTNRYFFL
# [11] = biological target: T3, yeast H2-Db library peptide enriched by the EAE6-CD8 TCR peptide on H2-Db (mouse); experiment: binding, other
# T3 peptide: ASIANWPLAI
# [12] = biological target: T4, yeast H2-Db library peptide enriched by the EAE6-CD8 TCR peptide on H2-Db (mouse); experiment: binding, other
# T4 peptide: NHRNNRYFFL
# [13] = biological target: T5, yeast H2-Db library peptide enriched by the EAE6-CD8 TCR peptide on H2-Db (mouse); experiment: binding, other
# T5 peptide: GTEFNHWAAI
# [14] = biological target: T6, yeast H2-Db library peptide enriched by the EAE6-CD8 TCR peptide on H2-Db (mouse); experiment: binding, other
# T6 peptide: FQRGNRLMWL
# [15] = biological target: T7, surrogate peptide (SP) from the yeast H2-Db library; no match in the mouse genome peptide on H2-Db (mouse); experiment: multimer staining
# T7 peptide: SMRPNHFFFL
# [16] = biological target: T8, surrogate peptide (SP) from the yeast H2-Db library; no match in the mouse genome peptide on H2-Db (mouse); experiment: multimer staining
# T8 peptide: ASRSNRYFWL
# [17] = biological target: T9, yeast H2-Db library peptide enriched by the EAE7-CD8 TCR peptide on H2-Db (mouse); experiment: binding, other
# T9 peptide: WSLRNLVML
# [18] = biological target: T10, yeast H2-Db library peptide enriched by the EAE7-CD8 TCR peptide on H2-Db (mouse); experiment: binding, other
# T10 peptide: TRLVNDVDL
# [19] = biological target: T11, yeast H2-Db library peptide enriched by the EAE7-CD8 TCR peptide on H2-Db (mouse); experiment: binding, other
# T11 peptide: QRHENLHRM
# [20] = biological target: T12, yeast H2-Db library peptide enriched by the EAE7-CD8 TCR peptide on H2-Db (mouse); experiment: binding, other
# T12 peptide: RDVHNPDVI
# [21] = biological target: T13, yeast H2-Db library peptide enriched by the EAE7-CD8 TCR peptide on H2-Db (mouse); experiment: binding, other
# T13 peptide: RRILNLGGM
# [22] = biological target: T14, yeast H2-Db library peptide enriched by the EAE7-CD8 TCR peptide on H2-Db (mouse); experiment: binding, other
# T14 peptide: TCAYNPRGM
# [23] = biological target: T15, surrogate peptide (SP) from the yeast H2-Db library; no match in the mouse genome peptide on H2-Db (mouse); experiment: multimer staining
# T15 peptide: HDRVNWEYI
# [24] = biological target: T16, surrogate peptide (SP) from the yeast H2-Db library; no match in the mouse genome peptide on H2-Db (mouse); experiment: multimer staining
# T16 peptide: YQPGNWEYI
# [25] = Table 6, MOG35-55 with or without SP, mean ± SEM
# [26] = Table 6, immunization with MOG35-55, CFA and PTX with or without SP, n=10
# [27] = Table 7, MOG, SP challenge, MOG challenge (challenge seven days after first immunization), n=10
# [28] = Table 7, challenge seven days after first immunization, affected if clinical scores ≥1 for ≥2 consecutive days
# [29] = Table 7, challenge seven days after first immunization, mean ± SEM
# [30] = MOG+SP immunization, spleen and LN
# [31] = SP immunization in comparison to WT mice
molecule,measurement,setting,value
"MOG35-55: EAE-inducing myelin oligodendrocyte glycoprotein peptide 35-55 (MEVGWYRSPFSRVVHLYRNGK; UniProt Q61885 63-83, looked up, fragment)",incidence of EAE disease (of the mice),[1]; MOG immunization with or without SP,100%
same,"CDS, cumulative disease score",[1]; [25],46.3 ± 5.9
same,"DA, days affected",[1]; [25],16.3 ± 0.7
same,"DO, day of onset in affected animals",[1]; [25],13.8 ± 0.2
same,"PS, peak score",[1]; [25],3.2 ± 0.4
same,"SI, severity index (cumulative disease score/days affected)",[1]; [25],3 ± 0.4
same,Incidence (affected/total),[1]; [26],10/10
same,"Incidence, percentage affected",[1]; [26],100%
same,Incidence (affected/total),[1]; [27],10/10
same,"Incidence, percentage affected",[1]; [28],100%
same,"CDS, cumulative disease score over 30 days of experiment",[1]; [29],55.8 ± 3.9
same,"DA, days affected",[1]; [29],17 ± 0.3
same,"DO, day of onset in affected animals",[1]; [29],13.3 ± 0.3
same,"PS, peak score",[1]; [29],4 ± 0.1
same,"SI, severity index (cumulative disease score/days affected)",[1]; [29],3.14 ± 0.2
same,SP specific CD8+ T cells detected,[2]; MOG35-55 immunized mice,very few
same,frequency/number of MOG35-55 I-Ab tetramer+ CD4+ T cells,[3],elicited
same,frequency/number of MOG35-55 I-Ab tetramer+ CD4+ T cells,[3]; listed as MOG,increase
same,CD4+ T cell proliferation in the absence of CD8+ T cells,[4],proliferated robustly
SIINFEKL [ovalbumin derived peptide],activation (CD69) of OT-1 TCR cells,[5],robust activation
"MOG challenge: mice immunized with SP, then challenged with MOG35-55 seven days after immunization (MEVGWYRSPFSRVVHLYRNGK; UniProt Q61885 63-83, looked up, fragment)",Incidence (affected/total),[1]; [27],6/10
same,"Incidence, percentage affected",[1]; [28],60%
same,"CDS, cumulative disease score over 30 days of experiment",[1]; [29],43.3 ± 5.3
same,"DA, days affected",[1]; [29],8.2 ± 2.5
same,"DO, day of onset in affected animals",[1]; [29],10 ± 2.8
same,"PS, peak score",[1]; [29],1.5 ± 0.4
same,"SI, severity index (cumulative disease score/days affected)",[1]; [29],1.29 ± 0.3
ASRSNRYFWL [surrogate peptide for EAE6-CD8 TCR from H2-Db yeast library],pMHC tetramer staining of EAE6-CD8 TCR cells,[6],robust staining
same,frequency of CD8+ T cells specific for the peptide,[2]; [30],increased
same,frequency of CD8+ T cells specific for the peptide,[2]; [31],no change
"SSLENFRAYV [H2-Db-restricted acid polymerase peptide 224-233, ligand of 6218 TCR]",pMHC tetramer staining of 6218 TCR cells,[7],robust staining
YQPGNWEYI [top enriched surrogate peptide for EAE7-CD8 TCR],pMHC tetramer staining of EAE7-CD8 TCR cells,[8],robust staining
same,frequency of CD8+ T cells specific for the peptide,[2]; [31],no change
HDRVNWEYI [36th enriched peptide for EAE7-CD8 TCR],pMHC tetramer staining of EAE7-CD8 TCR cells,[8],robust tetramer staining
same,frequency of CD8+ T cells specific for the peptide,[2]; [30],increased
same,frequency of CD8+ T cells specific for the peptide,[2]; [31],higher frequency
SMRPNHFFFL [surrogate peptide for EAE6-CD8 TCR from H2-Db yeast library],pMHC tetramer staining of EAE6-CD8 TCR cells,[6],robust staining
same,frequency of CD8+ T cells specific for the peptide,[2]; [30],increased
same,frequency of CD8+ T cells specific for the peptide,[2]; [31],higher frequency
B1,binding result,[9],recognises
B2,binding result,[10],recognises
same,binding result,[11],recognises
same,binding result,[12],recognises
same,binding result,[13],recognises
same,binding result,[14],recognises
same,binding result,[15],recognises
same,binding result,[16],recognises
B3,binding result,[17],recognises
same,binding result,[18],recognises
same,binding result,[19],recognises
same,binding result,[20],recognises
same,binding result,[21],recognises
same,binding result,[22],recognises
same,binding result,[23],recognises
same,binding result,[24],recognises
B4,activation (CD69) of OT-1 TCR cells,[5],robustly stimulated
B5,binding result,[9],recognises
